Data from patent publication US20230233500A1, “Gasdermin D (GSDMD) Succination for the Treatment of Inflammatory Disease” (University of Massachusetts, priority 2020, published 2023).
Where a name gives a salt, the structure may show the parent alone.

Experiments:
Format in all cases: cell-based, mouse
[1] = tested on: Bone marrow-derived macrophages (BMDMs); assay: LPS-nigericin inflammasome activation/pyroptosis in BMDMs; settings: for LPS-Nig-induced release of LDH / LPS-Nig-induced release of IL-1β / kinetic cell death / formation of GSDMD-N: WT BMDMs; for LPS-Nig-induced release of LDH / LPS-Nig-induced release of IL-1β / LPS-Nig induced pyroptosis (inhibitory effect): LPS 2 hr; for LPS-Nig-induced release of LDH / LPS-Nig-induced release of IL-1β: compound 1 hour (fumarate 25 μM), then nigericin; for LPS-Nig-induced release of IL-1β: ELISA; for kinetic cell death / formation of GSDMD-N: LPS-Nig; for kinetic cell death: SYTOX orange, 0-6 hrs; for formation of GSDMD-N: immunoblot; for LPS-Nig induced pyroptosis (inhibitory effect): BMDMs, compound 25 μM 1 hour, nigericin
Description: Human kidney cell line HEK293T was cultured in Dulbecco's modified Eagle's medium supplemented with 10% (v/v) fetal bovine serum, 100 U/ml penicillin and 100 µg/ml streptomycin. Human peripheral blood monocyte cell line, THP1 cells were cultured in RPMI-1640 medium supplemented with 10% (v/v) fetal bovine serum, 100 U/ml penicillin and 100 µg/ml streptomycin. For isolation of BMDMs, tibias and femurs were removed from wild type and GsdmD^−/− mice and bone marrow was flushed with complete DMEM-medium. Cells were plated in medium containing 20% (v/v) conditioned medium of L929 mouse fibroblasts cultured for 7 days at 37° C. in a humidified atmosphere of 5% C02. Medium was replaced every 3 days.
Conditioned media or serum was collected as indicated and IL-1β or TNF-α, were quantified by sandwich ELISA (R&D Systems).
Cells were plated, treated and incubated in phenol red free medium. Following treatment medium was collected and assessed for LDH release using the CytoTox96 non-radioactive cytotoxicity assay (Promega) as per manufacturer's instructions. Kinetic cell death assays were performed using SytoxOrange and the Biotek Cytation5.
For noncanonical inflammasome activation, cells were primed with […] Pam3CSK4 (Invivogen) for 2 h, followed by transfection of LPS (2 μg/ml) using Lipofectamine 2000 for 16 hours.
Primary BMDMs from WT or GsdmD^−/− mice were cultured in 12-well plates (1×10^6 cells per ml; 1 ml) or 10 cm dishes (2×10^6 cells per ml; 10 ml). HEK293T cells (2.5×10^5 cells per ml; 3 ml) were cultured in 6-well plates and transfected with FLAG-tagged GSDMD constructs where indicated. For cell lysate analysis cells were lysed directly in 1× Lamelli sample buffer. For native gel analysis cells were lysed in NP-40 lysis buffer (50 mM Tris-HCl, pH 7.4, containing 150 mM NaCl, 0.5% (w/v) IgePal, 50 mM NaF, 1 mM Na3VO4, 1 mM dithiothreitol, 1 mM phenylmethylsulfonyl fluoride and protease inhibitor cocktail. For immunoprecipitation of GSDMD, cells were treated as indicated and then collected in 500 μl RIPA buffer, followed by incubation for 15 min on ice. Lysates were incubated with GSDMD antibody and protein A-protein G-agarose was added to each sample, followed by incubation overnight at 4° C. Immunoprecipitates were collected by centrifugation and washed four times with 1 ml of RIPA buffer. Immunprecipates were eluted from beads using 1× sample buffer. Samples were resolved by SDS-PAGE and stained using simply blue safe stain or transferred to nitrocellulose membranes and analyzed by immunoblot. Immunoreactivity was visualized by the Odyssey Imaging System (LICOR Biosciences). For immunoblotting of IL-1β in cell supernatants, conditioned medium was collected and filtered using filter spin columns to reduce salt and remove abundant serum proteins. Filtrates were added to 4×SDS-PAGE sample buffer and resolved by SDS-PAGE for immunoblot analysis. GSDMD (ab209845) and GSDME antibodies were from abcam (ab215191). Caspase 1 antibody was from adipogen. Fumarase antibody was from cell signalling and anti-β-actin (AC-15; A1978) were from Sigma; anti-mouse IRDye™ 680 (926-68070) and anti-rabbit IRDye™ 800 (926-32211) were from LI-COR Biosciences.
Numerous studies have shown that cell metabolism impacts inflammatory responses. LPS activated macrophages switch from oxidative phosphorylation to aerobic glycolysis. Krebs cycle intermediates such as succinate and itaconate accumulate and moonlight as positive and negative regulators of inflammatory gene expression (3-8). To determine if Krebs cycle intermediates modulate pyroptosis, we tested their effect on inflammasome responses. Bone marrow-derived macrophages (BMDMs) were primed with LPS (2 hr) before being exposed to metabolites and then exposed to nigericin (Nig) and inflammasome activation/pyroptosis measured. The metabolites were added after LPS to avoid any impact on transcription. […] Fumarate impaired kinetic cell death (0-6 hrs) (FIG. 1E, FIG. 5A). […]

GAPDH target gene iNos = assay: QPCR/immunoblot of iNos in BMDMs; settings: WT BMDMs, HA 1 μM 1 hour, LPS 3 or 6 hours
Description: (§1) FIGS. 7A-K. Fumarate regulates pyroptosis independently of NRF2 and GAPDH. (A-B) Kinetic cell death data of WT primary BMDMs treated with LPS for 2 hours, DMSO (vehicle) or fumarate (25 μM) or heptilidic acid (HA) (0.5 μM or 1 μM) (A) or ML385 (1 μM) (B) followed by nigericin (10 μM) for 6 hours. (C-D) LDH (C) and IL-1B (D) release from WT primary BMDMs treated with LPS for 2 hours, DMSO (vehicle) or fumarate (25 μM) for 1 hour, HA or ML385 (1 μM) for 1 hour followed by nigericin (10 μM) or 1 hour. (E-F) Immunoblot analysis of GSDMD in cell lysates from WT BMDMs treated as in (B) with the indicated inhibitors. (G-H) QPCR (G) and immunoblot (H) analysis of iNos in WT BMDMs treated with DMSO (vehicle) or HA (1 μM) for 1 hour and LPS for 3 (G) or 6 (H) hours. (I) QPCR analysis of Hmox1 mRNA in WT BMDMs treated with DMSO (vehicle) or ML385 (1 μM) for 3 hours. (J-K) LDH assay (J) and immunoblot analysis of GSDMD (K) in WT BMDMs transfected with control non-targeting siRNA or NRF2-specific siRNAs (50 nM) for 48 hours followed by treatment with LPS for 2 hours, DMSO (vehicle) or fumarate (25 μM) and nigericin (10 μM) or 1 hour. A, B, E, F, H, K representative images from 3 independent experiments. C, D, G, I, K pooled data from 3 independent experiments. *, P<0.01, ****, P<0.00001 (Two-way ANOVA). Error bars show means±SD (A, B) or SEM (C, D, G, I, J).

NRF2 target gene Hmox1 = assay: QPCR of Hmox1 mRNA in BMDMs; settings: WT BMDMs, ML385 1 μM 3 hours
Description: as §1

Row | SMILES | LPS-Nig-induced release of LDH [1] | LPS-Nig-induced release of IL-1β [1] | kinetic cell death [1] | formation of GSDMD-N [1] | expression of GAPDH target gene iNos (GAPDH target gene iNos) | expression of NRF2 target gene Hmox1 (NRF2 target gene Hmox1) | LPS-Nig induced pyroptosis (inhibitory effect) [1]
1 | CC(C)[C@H]1CC[C@@]2(CO2)[C@H]2C(=O)OCC(C(=O)O)=C[C@H]12 [Heptilidic acid] | no impact | no impact | no impact | no impact | inhibited | – | –
2 | Cc1ccccc1C(=O)N1CCc2cc(-c3nc(NC(=O)Cc4ccc5c(c4)OCO5)sc3C)ccc21 [ML385] | no impact | no impact | no impact | no impact | – | inhibited | –
3 | COC(=O)/C=C/C(=O)O [MMF, Monomethyl fumarate] | – | – | – | – | – | – | no inhibitory effect
4 | COC(=O)/C=C/C(=O)OCCN1C(=O)CCC1=O [diroximel fumarate] | – | – | – | blocked | – | – | blocked
5 | CCN(CC)C(=O)COC(=O)/C=C/C(=O)OC [tepilamide fumarate] | – | – | – | blocked | – | – | blocked
